1 compound from patent publication US8183388B2, “Androgen receptor modulator and uses thereof” (Eli Lilly and Company, priority 2009, dated 2012) can be followed below.

The structures appear in SMILES notation.

The target of test [1] is T1, human PR (progesterone receptor) (Homo sapiens, UniProt P06401).
T1 construct: expressed in transfected cells; host or cells: HEK293 (lysate, 293-PR)
T1 sequence (P06401 1-933): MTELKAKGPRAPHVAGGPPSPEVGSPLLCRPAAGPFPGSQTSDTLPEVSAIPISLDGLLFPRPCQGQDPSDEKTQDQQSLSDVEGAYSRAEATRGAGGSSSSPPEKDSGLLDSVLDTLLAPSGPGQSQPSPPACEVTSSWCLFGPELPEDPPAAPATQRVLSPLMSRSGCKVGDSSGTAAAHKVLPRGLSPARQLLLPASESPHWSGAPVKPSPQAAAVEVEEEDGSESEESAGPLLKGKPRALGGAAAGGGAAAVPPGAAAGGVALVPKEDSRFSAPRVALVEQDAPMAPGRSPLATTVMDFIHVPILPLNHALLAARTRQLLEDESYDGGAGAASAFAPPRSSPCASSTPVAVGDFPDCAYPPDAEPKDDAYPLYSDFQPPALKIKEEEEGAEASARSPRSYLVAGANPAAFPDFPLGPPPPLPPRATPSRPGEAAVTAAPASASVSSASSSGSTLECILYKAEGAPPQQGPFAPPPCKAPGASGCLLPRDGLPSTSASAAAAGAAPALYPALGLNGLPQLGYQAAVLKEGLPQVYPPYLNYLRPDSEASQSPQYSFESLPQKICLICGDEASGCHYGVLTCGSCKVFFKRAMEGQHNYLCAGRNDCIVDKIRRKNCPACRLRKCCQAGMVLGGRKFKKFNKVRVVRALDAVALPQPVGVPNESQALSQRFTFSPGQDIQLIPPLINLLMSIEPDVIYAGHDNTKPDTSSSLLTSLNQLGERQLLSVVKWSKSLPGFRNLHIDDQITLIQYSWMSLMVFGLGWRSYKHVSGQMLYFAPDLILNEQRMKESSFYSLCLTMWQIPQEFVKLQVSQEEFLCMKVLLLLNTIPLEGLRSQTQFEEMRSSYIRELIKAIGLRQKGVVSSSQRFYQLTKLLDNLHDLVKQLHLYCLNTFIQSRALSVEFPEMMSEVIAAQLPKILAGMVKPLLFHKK
Kind of test: Steroid hormone nuclear receptor binding assay, PR. The settings on record: HEK293 lysate overexpressing human PR, [3H]-methyltrienolone. As for the experimental part: (§1) Cell lysates from human embryonic kidney HEK293 cells overexpressing human MR (mineralocorticoid receptor), GR (glucocorticoid receptor), AR (androgen receptor), or PR (progesterone receptor) are used for receptor-ligand competition binding assays to determine Ki values. Typical procedures are provided below
(§2) Briefly, steroid receptor competition binding assays are run in a buffer containing 20 mM HEPES buffer (pH=7.6), 0.2 mM EDTA, 75 mM NaCl, 1.5 mM MgCl2, 20% glycerol, 20 mM sodium molybdate, 0.2 mM DTT (dithiothreitol), 20 μg/mL aprotinin and 20 μg/mL leupeptin (assay buffer). Typically, steroid receptor binding assays include radio-labeled ligands, such as 0.25 nM [^3H]-aldosterone for MR binding, 0.3 nM [^3H]-dexamethasone for GR binding, 0.36 nM [^3H]-methyltrienolone for AR binding, and 0.29 nM [^3H]-methyltrienolone for PR binding, and either 20 μg 293-MR lysate, 20 μg 293-GR lysate, 22 μg 293-AR lysate, or 40 μg 293-PR lysate per well. Assays are typically run in 96-well format. Competing test compounds are added at various concentrations ranging from about 0.01 nM to 10 μM. Non-specific binding is determined in the presence of 500 nM aldosterone for MR binding, 500 nM dexamethasone for GR binding, or 500 nM methyltrienolone for AR and PR binding. […] After an incubation of 2 hours, plates are read in a Wallac Microbeta counter. […]

Test [2] addresses T2, human GR (glucocorticoid receptor) (Homo sapiens, UniProt P04150).
T2 construct: expressed in transfected cells; host or cells: HEK293 (lysate, 293-GR)
T2 sequence (P04150 1-777): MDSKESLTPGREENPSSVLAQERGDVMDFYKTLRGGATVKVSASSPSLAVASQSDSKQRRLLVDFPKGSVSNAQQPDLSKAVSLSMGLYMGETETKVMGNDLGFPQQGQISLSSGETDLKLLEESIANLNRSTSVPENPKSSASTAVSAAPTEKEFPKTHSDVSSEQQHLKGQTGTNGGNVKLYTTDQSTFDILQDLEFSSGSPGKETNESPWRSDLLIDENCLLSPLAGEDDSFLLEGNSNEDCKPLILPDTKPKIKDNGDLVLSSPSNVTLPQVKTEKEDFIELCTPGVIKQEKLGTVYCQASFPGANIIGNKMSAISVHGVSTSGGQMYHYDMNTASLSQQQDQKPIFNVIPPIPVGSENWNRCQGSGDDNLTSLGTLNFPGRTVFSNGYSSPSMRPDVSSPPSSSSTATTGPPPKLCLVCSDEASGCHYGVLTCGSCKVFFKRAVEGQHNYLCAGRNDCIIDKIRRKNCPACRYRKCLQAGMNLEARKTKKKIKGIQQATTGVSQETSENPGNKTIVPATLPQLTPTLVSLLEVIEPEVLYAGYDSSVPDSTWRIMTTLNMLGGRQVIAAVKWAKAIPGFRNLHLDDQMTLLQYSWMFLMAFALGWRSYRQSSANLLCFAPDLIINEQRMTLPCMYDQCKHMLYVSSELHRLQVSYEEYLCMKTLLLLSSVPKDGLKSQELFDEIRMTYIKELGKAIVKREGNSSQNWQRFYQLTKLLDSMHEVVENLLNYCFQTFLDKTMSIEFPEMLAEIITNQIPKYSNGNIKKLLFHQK
Put plainly: Steroid hormone nuclear receptor binding assay, GR. The settings on record: HEK293 lysate overexpressing human GR, [3H]-dexamethasone. As for the experimental part: as §1, §2

The Ki is the equilibrium dissociation constant of an inhibitor or competing ligand from its target. The low end stands for a stronger hold on the target, the high end for a looser hold on the target.

On to `CC(C)OC(=O)N[C@H]1Cc2c(n(C[C@H]3OCC[C@@H]3O)c3ccc(C#N)cc23)C1` [compound of Formula (I), [(S)-7-Cyano-4-((2R,3S)-3-hydroxytetrahydrofuran-2-ylmethyl)-1,2,3,4-tetrahydrocyclopenta[b]indol-2-yl]-carbamic acid isopropyl ester], for which the Ki is above 4 µM in test [1] and above 2 µM in test [2].
